Laboratory results taken from patent US20020006906A1, “Novel active agent, composition containing it and use in the cosmetic, dermocosmetic, dermopharmaceutical or pharmaceutical field or on woven or nonwoven supports” (SOCIETE D'EXPLOITATION DE PRODUITS POUR LES, priority 2000, published 2002).

Legend:
superoxide anion = assay: Anti-free-radical test: xanthine/xanthine oxidase, reduction of cytochrome C (550 nm); type: biochemical; conditions: 0.46% (as active substance); for % anti-free radical inhibition: 25° C.
Procedure: The determination of the anti-free-radical effect is based on the capacity which the molecule to be studied has to inhibit or reduce the rate of reduction of cytochrome C, when it is added to the reaction medium. The superoxide anion is formed by the action of xanthine oxidase on xanthine. It induces, in the absence of a molecule capable of capturing it, the reduction of cytochrome C. The appearance of reduced cytochrome C is monitored in a spectrophotometer at 550 nm, in the presence (Trial) and in the absence (Control) of anti-free-radical molecules.
The reaction is carried out in a spectrophotometer thermostated at 25° C. and provided with a sample changer. All the kinetics are determined at least three times; the mean and the standard deviation are calculated for the three values obtained. A percentage inhibition of the rate of appearance of the coloured product (corresponding to the quantity of free superoxide anion) is therefore calculated for each active agent tested. The calculation is performed relative to the rate of appearance of the coloured product in the control (without active agent). The percentage inhibition of the appearance of the coloured product by the active agent therefore corresponds to the percentage inhibition of the superoxide anion.

[1] = tested on: normal human keratinocytes; assay: Cell division: fluorimetric DNA assay in keratinocytes under thermal stress; type: cell-based
Procedure: The effect of the active agents on cell division is measured by a fluorimetric assay of the content of DNA in normal human keratinocytes subjected to a high thermal stress (20 minutes at 50° C.). The quantity of DNA present in the cells determines their capacity to divide. The cells are used at 60% confluence. They are incubated for 24 hours in the presence of the active agents. Cell division is determined by assaying the quantity of DNA present per well.
Four samples A, B, C and D, of a culture normal human keratinocytes, are subjected to the following respective treatments:
Sample A: cells not treated and left at room temperature.
Sample B: cells not treated and heated at 50° C. for 20 minutes.
Sample D: cells left incubated for 24 hours with panthenol (concentration: 12.5×10^−6% by weight of active substance) and heated at 50° C. for 20 minutes.
The DNA in each of the samples is then assayed.

| SMILES | Anti-free radical activity (in words) (superoxide anion) | % anti-free radical inhibition (superoxide anion) [%] | Relative level of cell division (base 100: batch B) ([1]; Sample D: 12.5×10^−6% active substance, 24 hours, 50° C. for 20 minutes) | Cell division (in μg/well), DNA per well ([1]; Sample D: 24 hours with 12.5×10^−6% by weight of active substance, then 50° C. for 20 minutes (heated untreated sample B 3.7)) [μg/well] | Effect on cell division under heat (in words) ([1]; keratinocytes heated at 50° C. for 20 minutes) |
| --- | --- | --- | --- | --- | --- |
| CC(C)(CO)C(O)C(=O)NCCCO (stereo not drawn) [Panthenol, 2,4-dihydroxy-N-(3-hydroxypropyl)-3,3-dimethylbutanamide] | nonexistent | 0 | 116.2 | 4.3 | only compensates for these effects |
| O=C1O[C@H]([C@@H](O)CO)C(O)=C1O [Vitamin C, ascorbic acid] |  | 94 |  |  |  |
